Patent US11192850B2, “N-aryl oxamic acids” (Purdue Research Foundation, priority 2020, dated 2021)
Where two headings read alike, the source gives them in different places.

Key:
SHP1 = SHP1 (Homo sapiens (Human), UniProt P29350); assay: pNPP inhibition assay against SHP1; type: biochemical; settings: pNPP at Km of the PTP
SHP2 = SHP2 (Homo sapiens (Human), UniProt Q06124); assay: pNPP inhibition assay against SHP2; type: biochemical; settings: pNPP at Km of the PTP
PTP1B = PTP1B (Homo sapiens (Human), UniProt P18031); assay: pNPP inhibition assay against PTP1B; type: biochemical; settings: pNPP at Km of the PTP
mPTPB = mPTPB (Mycobacterium tuberculosis (strain ATCC 25618 / H37Rv), UniProt I6WXK4); type: biochemical
[1] = Mouse liver microsomal stability; type: in vitro ADME; settings: Mouse, after 60 min at 37° C.
Description: A sufficient oral dosage must survive first-pass clearance through the liver before reaching its biological target. The majority of drugs/xenobiotics undergo phase I metabolism, mediated by the cytochrome P450 (CYP450) family of heme-thiolate proteins predominantly in the liver. Although mouse liver microsomal (MLM) stability studies are not a perfect substitute for in vivo metabolic clearance studies, but they serve as an initial […] model system that can correlate well with human liver microsomal (HLM) stability and in vivo activity in mice. To this end, compounds 4h, 4k, 4t, 4u, and 4v were allowed to react with mouse liver microsomes and the fraction of remaining parent compound over time was determined. […] Incorporation of fluorine into drug candidates generally improves their potency, bioavailability, and metabolic stability. In addition, fluorinated molecules are in general, nontoxic and mimic the corresponding nonfluorinated analogs in their stereoelectronic properties, so the drug's affinity for the receptor either remains the same or, in some cases increases. […] So, the loss of compounds tested here is attributed only to oxidative Phase I metabolism. The high microsomal stability of these compounds could be exploited pharmacologically.
Mouse (CD-1) pooled liver microsomes purchased from Fisher Scientific, IL, USA (0.5 mg/mL, Corning Gentest 3P, cat#452702), and the assay procedures were followed as previously reported. A solution of mouse liver microsomes and 1 mM of co-factor NADPH in 1 ml of phosphate buffer saline (pH=7.4) was prewarmed to 37° C. in an Eppendorf tube. Then 10 μL of a test solution (10 mM DMSO stock) was added to initiate the reaction. Verapamil-HCl was used as a positive control. […] The incubation mixture was kept at 37° C., and 50 μL aliquots were taken at times of 0, 5, 10, 15, 30 or 60 min. Each of the aliquot was quenched using 200 μL of ice-cold acetonitrile. The mixtures were vigorously vortexed and centrifuged to remove the precipitated protein and the supernatants were analyzed by an Agilent Technologies 6470 series, triple quadrupole LC/MS spectrometer to quantitate the remaining parent compound. The percent of the parent compound remaining was calculated from the formula: % parent compound remaining=(concentration at 60 min/concentration at 0 min)*100

[2] = pNPP assay, pH 7.0, 3.0 mM pNPP

mPTPB, sequence (I6WXK4 whole entry, looked up): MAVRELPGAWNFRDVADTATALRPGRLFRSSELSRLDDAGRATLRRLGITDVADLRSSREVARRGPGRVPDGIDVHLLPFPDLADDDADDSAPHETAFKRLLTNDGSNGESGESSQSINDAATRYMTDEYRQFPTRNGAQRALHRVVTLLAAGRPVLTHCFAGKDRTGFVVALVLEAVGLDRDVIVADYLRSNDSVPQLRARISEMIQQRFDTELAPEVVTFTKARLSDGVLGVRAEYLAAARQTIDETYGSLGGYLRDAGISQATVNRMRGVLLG
PTP1B, sequence (P18031 3-277): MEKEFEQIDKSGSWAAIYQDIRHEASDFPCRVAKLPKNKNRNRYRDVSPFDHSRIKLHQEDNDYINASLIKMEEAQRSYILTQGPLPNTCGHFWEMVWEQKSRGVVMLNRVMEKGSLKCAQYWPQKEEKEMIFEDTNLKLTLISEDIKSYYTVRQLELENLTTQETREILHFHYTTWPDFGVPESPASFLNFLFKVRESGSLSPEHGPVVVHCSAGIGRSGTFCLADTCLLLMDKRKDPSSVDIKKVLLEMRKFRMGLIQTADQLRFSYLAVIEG
SHP1, sequence (P29350 244-515): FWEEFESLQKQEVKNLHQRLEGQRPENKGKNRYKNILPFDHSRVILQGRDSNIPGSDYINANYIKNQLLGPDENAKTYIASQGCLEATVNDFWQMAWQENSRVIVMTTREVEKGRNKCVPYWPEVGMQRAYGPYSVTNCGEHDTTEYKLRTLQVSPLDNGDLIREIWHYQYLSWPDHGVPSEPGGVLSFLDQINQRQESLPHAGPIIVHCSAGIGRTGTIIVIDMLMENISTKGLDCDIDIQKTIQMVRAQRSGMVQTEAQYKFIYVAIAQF
SHP2, sequence (Q06124 247-517): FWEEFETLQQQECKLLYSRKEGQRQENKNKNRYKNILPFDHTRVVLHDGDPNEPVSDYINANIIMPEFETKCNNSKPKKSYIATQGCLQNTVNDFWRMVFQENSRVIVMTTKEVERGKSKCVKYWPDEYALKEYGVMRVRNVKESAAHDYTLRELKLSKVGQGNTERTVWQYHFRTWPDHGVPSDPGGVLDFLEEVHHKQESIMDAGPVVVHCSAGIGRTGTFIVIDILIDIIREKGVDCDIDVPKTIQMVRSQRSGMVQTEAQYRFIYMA

Compound `O=C(O)C(=O)Nc1ccc(C#Cc2ccccc2)cc1` [Compound 4, 2-oxo-2-((4-(phenylethynyl)phenyl)amino)acetic Acid] has an IC50 (SHP1) of over 100 µM, an IC50 (SHP2) of over 100 µM and an IC50 (PTP1B) of over 100 µM. For the same compound, the IC50 (mPTPB) was 0.257 ± 0.008 µM and the “fold more potency compared to the meta derivative 5” value (mPTPB) was 2 fold.
With `O=C(O)C(=O)Nc1ccc(CCc2ccc(C(F)(F)F)cc2)cc1` [Compound 12, 2-oxo-2-((4-(4-(trifluoromethyl)phenethyl)phenyl)amino)acetic Acid] the IC50 (SHP2) was over 30 µM, the IC50 (PTP1B) was over 30 µM and the IC50 (mPTPB) was 0.197 ± 0.013 µM. For the same compound, the “fold less potency compared to corresponding alkyne analogs 4 and 4k” value (mPTPB) was 13 fold.
Work on `O=C(O)C(=O)Nc1ccc(CCc2ccccc2)cc1` [Compound 11, 2-oxo-2-((4-phenethylphenyl)amino)acetic Acid] yielded an IC50 (SHP2) of over 30 µM, an IC50 (PTP1B) of over 30 µM and an IC50 (mPTPB) of 1.27 ± 0.2 µM. The “fold less potency compared to corresponding alkyne analogs 4 and 4k” value (mPTPB) was 5 fold.
For `COC(=O)c1cc(C#Cc2cccc(NC(=O)C(=O)O)c2)c(N(C)C)cc1O` [Compound 4e, 2-((3-((2-(dimethylamino)-4-hydroxy-5-(methoxycarbonyl)phenyl)ethynyl)phenyl)amino)-2-oxoacetic Acid], the IC50 (SHP1) was over 50 µM, the IC50 (SHP2) was over 50 µM and the IC50 (PTP1B) was over 50 µM.
`O=C(O)C(=O)Nc1ccc(C#Cc2ccc(O)cc2)cc1` [Compound 4m, 2-((4-((4-hydroxyphenyl)ethynyl)phenyl)amino)-2-oxoacetic Acid] gave an IC50 (SHP1) of over 50 µM, an IC50 (SHP2) of over 50 µM and an IC50 (PTP1B) of over 50 µM.
With `O=C(O)C(=O)Nc1ccc(C#Cc2ccc(C(F)(F)F)cc2Br)cc1` [Compound 4u, 2-((4-((2-bromo-4-(trifluoromethyl)phenyl)ethynyl)phenyl)amino)-2-oxoacetic Acid] the IC50 (SHP1) was 33.8 ± 6.8 µM, the IC50 (SHP2) was 15.2 ± 3.4 µM and the “Microsome Stability, % remaining” value [1] was 60 ± 3.8%. It also gave an IC50 (PTP1B) of 16.4 ± 2.9 µM.
With `NS(=O)(=O)c1ccc(C#Cc2ccc(NC(=O)C(=O)O)cc2)cc1` [Compound 4l, 2-oxo-2-((4-((4-sulfamoylphenyl)ethynyl)phenyl)amino)acetic Acid] the IC50 (SHP1) was 29.9 ± 3.3 µM, the IC50 (SHP2) was over 50 µM and the IC50 (PTP1B) was over 50 µM.
`COC(=O)c1ccc(C#Cc2ccc(NC(=O)C(=O)O)cc2)cc1` [Compound 4a, 2-((4-((4-(methoxycarbonyl)phenyl)ethynyl)phenyl)amino)-2-oxoacetic Acid] showed an IC50 (SHP1) of over 100 µM, an IC50 (SHP2) of 52.6 ± 6.4 µM and an IC50 (PTP1B) of over 100 µM. The IC50 (mPTPB; [2]) was 0.023 ± 0.004 µM.
For `O=C(O)C(=O)Nc1ccc(-c2ccccc2)cc1` [Compound 6, 2-([1,1′-biphenyl]-4-ylamino)-2-oxoacetic Acid], the IC50 (SHP2) was 29 ± 8 µM and the IC50 (PTP1B) was 62 ± 5 µM.
Work on `O=C(O)C(=O)Nc1cnc2ccccc2c1` [Compound 8, 2-oxo-2-(quinolin-3-ylamino)acetic Acid] yielded an IC50 (SHP2) of over 100 µM, an IC50 (PTP1B) of over 100 µM and an IC50 (mPTPB; [2]) of over 10 µM.
For `C#Cc1ccc(NC(=O)C(=O)O)cc1` [Compound 2, 2-((4-ethynylphenyl)amino)-2-oxoacetic Acid], the IC50 (SHP2) was over 100 µM and the IC50 (PTP1B) was over 100 µM.
Work on `O=C(O)C(=O)Nc1ccc(/C=C\c2ccccc2)cc1` [Compound 9, (Z)-2-oxo-2-((4-styrylphenyl)amino)acetic Acid] yielded an IC50 (SHP2) of over 30 µM, an IC50 (PTP1B) of over 30 µM and an IC50 (mPTPB) of 0.77 ± 0.015 µM. The “fold less potency compared to corresponding alkyne analogs 4 and 4k” value (mPTPB) was 3 fold.
Work on `COC(=O)c1ccc(C#Cc2ccc(NC(=O)C(=O)O)cc2)cc1O` [Compound 4c, 2-((4-((3-hydroxy-4-(methoxycarbonyl)phenyl)ethynyl)phenyl)amino)-2-oxoacetic Acid] yielded an IC50 (SHP1) of over 50 µM, an IC50 (SHP2) of over 50 µM and an IC50 (PTP1B) of over 50 µM.
Work on `CC(C)(C)OC(=O)Nc1ccc(C#Cc2ccc(NC(=O)C(=O)O)cc2)cc1` [Compound 4s, 2-((4-((4-((tert-butoxycarbonyl)amino)phenyl)ethynyl)phenyl)amino)-2-oxoacetic Acid] yielded an IC50 (SHP1) of over 50 µM, an IC50 (SHP2) of over 50 µM and an IC50 (PTP1B) of over 50 µM.
`O=C(O)C(=O)Nc1ccc(/C=C\c2ccc(C(F)(F)F)cc2)cc1` [Compound 10, (Z)-2-oxo-2-((4-(4-(trifluoromethyl)styryl)phenyl)amino)acetic Acid] gave an IC50 (SHP2) of over 30 µM, an IC50 (PTP1B) of over 30 µM and an IC50 (mPTPB) of 0.684 ± 0.025 µM. For the same compound, the “fold less potency compared to corresponding alkyne analogs 4 and 4k” value (mPTPB) was 45 fold.
`N#Cc1ccc(C#Cc2ccc(NC(=O)C(=O)O)cc2)cc1` [Compound 4o, 2-((4-((4-cyanophenyl)ethynyl)phenyl)amino)-2-oxoacetic Acid] showed an IC50 (SHP1) of over 50 µM, an IC50 (SHP2) of over 50 µM and an IC50 (PTP1B) of over 50 µM.
Compound `O=C(O)C(=O)Nc1ccc(C#Cc2cc(C(F)(F)F)cc(C(F)(F)F)c2)cc1` [Compound 4p, 2-((4-((3,5-bis(trifluoromethyl)phenyl)ethynyl)phenyl)amino)-2-oxoacetic Acid] has an IC50 (SHP1) of over 50 µM, an IC50 (SHP2) of over 50 µM and an IC50 (PTP1B) of over 50 µM. The IC50 (mPTPB) was 0.06 ± 0.009 µM and the “difference in IC50 values with and without Triton X-100 and with preincubation” value (mPTPB) was “no significant difference”.
Compound `O=C(O)C(=O)Nc1ccc(C#Cc2ccc(OC(F)(F)F)cc2)cc1` [Compound 4i, 2-oxo-2-((4-((4-(trifluoromethoxy)phenyl)ethynyl)phenyl)amino)acetic Acid] has an IC50 (SHP1) of over 50 µM, an IC50 (SHP2) of over 50 µM and an IC50 (PTP1B) of over 50 µM.
For `O=C(O)C(=O)Nc1ccc(C#Cc2ccc(C(F)(F)F)cc2F)cc1` [Compound 4v, 2-((4-((2-fluoro-4-(trifluoromethyl)phenyl)ethynyl)phenyl)amino)-2-oxoacetic Acid], the IC50 (SHP1) was over 30 µM, the IC50 (SHP2) was over 30 µM and the “Microsome Stability, % remaining” value [1] was 72 ± 2.8%. For the same compound, the IC50 (PTP1B) was over 30 µM.
`COC(=O)c1cc(C#Cc2ccc(NC(=O)C(=O)O)cc2)ccc1O` [Compound 4b, 2-((4-((4-hydroxy-3-(methoxycarbonyl)phenyl)ethynyl)phenyl)amino)-2-oxoacetic Acid] showed an IC50 (SHP1) of over 50 µM, an IC50 (SHP2) of 27.3 ± 3.3 µM and an IC50 (PTP1B) of over 50 µM. It also gave an IC50 (mPTPB; [2]) of 0.025 ± 0.003 µM.
`O=C(O)C(=O)Nc1ccc(C#Cc2cccc(C(F)(F)F)c2)cc1` [Compound 4j, 2-oxo-2-((4-((3-(trifluoromethyl)phenyl)ethynyl)phenyl)amino)acetic Acid] gave an IC50 (SHP1) of over 50 µM, an IC50 (SHP2) of over 50 µM and an IC50 (PTP1B) of 29.5 ± 4.1 µM.
Compound `O=C(O)C(=O)Nc1cccc(-c2ccccc2)c1` [Compound 7, 2-([1,1′-biphenyl]-3-ylamino)-2-oxoacetic Acid] has an IC50 (SHP2) of over 100 µM and an IC50 (PTP1B) of over 100 µM.
`CN(C)c1cc(O)c(C(=O)O)cc1C#Cc1ccc(NC(=O)C(=O)O)cc1` [Compound 4f, 5-((4-(carboxyformamido)phenyl)ethynyl)-4-(dimethylamino)-2-hydroxybenzoic Acid] gave an IC50 (SHP1) of 59.3 ± 6 µM, an IC50 (SHP2) of 78.5 ± 4.2 µM and an IC50 (PTP1B) of over 100 µM. The IC50 (mPTPB; [2]) was 0.09 ± 0.008 µM.
`O=C(O)C(=O)Nc1ccc(C#Cc2ccc(C(F)(F)F)cc2C(F)(F)F)cc1` [Compound 4x, 2-((4-((2,4-bis(trifluoromethyl)phenyl)ethynyl)phenyl)amino)-2-oxoacetic Acid] gave an IC50 (SHP1) of over 30 µM, an IC50 (SHP2) of over 30 µM and an IC50 (PTP1B) of over 30 µM.
For `O=C(O)C(=O)Nc1ccc(C#Cc2ccc(O)c(Br)c2)cc1` [Compound 4n, 2-((4-((3-bromo-4-hydroxyphenyl)ethynyl)phenyl)amino)-2-oxoacetic Acid], the IC50 (SHP1) was over 50 µM, the IC50 (SHP2) was 44.5 ± 3.4 µM and the IC50 (PTP1B) was over 50 µM.
`N#Cc1cc(C(F)(F)F)ccc1C#Cc1ccc(NC(=O)C(=O)O)cc1` [Compound 4w, 2-((4-((2-cyano-4-(trifluoromethyl)phenyl)ethynyl)phenyl)amino)-2-oxoacetic Acid] gave an IC50 (SHP1) of 13.7 ± 3.1 µM, an IC50 (SHP2) of 10.6 ± 2.5 µM and an IC50 (PTP1B) of 27.4 ± 6.3 µM.
Compound `COC(=O)c1cc(C#Cc2ccc(NC(=O)C(=O)O)cc2)c(N(C)C)cc1O` [Compound 4d, 2-((4-((2-(dimethylamino)-4-hydroxy-5-(methoxycarbonyl)phenyl)ethynyl)phenyl)amino)-2-oxoacetic Acid] has an IC50 (SHP1) of over 50 µM, an IC50 (SHP2) of over 50 µM and an IC50 (PTP1B) of over 50 µM. The IC50 (mPTPB; [2]) was 0.03 ± 0.009 µM.
Compound `CC(C)(C)OC(=O)NCC#Cc1ccc(NC(=O)C(=O)O)cc1` [Compound 3, 2-((4-(3-((tert-butoxycarbonyl)amino)prop-1-yn-1-yl)phenyl)amino)-2-oxoacetic Acid] has an IC50 (SHP2) of 58 ± 2 µM and an IC50 (PTP1B) of over 100 µM.
In the case of `O=C(O)C(=O)Nc1ccccc1` [Compound 1, Oxanilic Acid], the IC50 (SHP2) is reported as over 100 µM and the IC50 (PTP1B) is reported as over 100 µM.
`O=C(O)C(=O)Nc1cccc(C#Cc2ccccc2)c1` [Compound 5, 2-oxo-2-((3-(phenylethynyl)phenyl)amino)acetic Acid] showed an IC50 (SHP2) of 69 ± 4 µM and an IC50 (PTP1B) of over 100 µM.
